Data as given in patent publication US11965039B2, “Compstatin analogues and their medical uses” (priority 2018, dated 2024).
Positions of bridges follow the written chain, without caps; N, C: chain ends. Non-standard residues stand in square brackets, D forms with d. Residues, ends and D or L forms follow the SMILES beside them. Trp(1-Me) = Cn1cc(C[C@H](N)C(=O)O)c2ccccc21

What was measured:
[1] = test system: classical complement pathway; test: In vitro haemolysis assay (inhibition of classical complement pathway); type: cell-based, human; settings: human serum, sensitized sheep red blood cells; Table 3, given as upper bounds; read-out: IC50, inhibition of hemolysis
In short: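 Compound dilutions preincubated 15 min at room temperature with diluted human serum (titrated per batch for 70-90% maximal haemolysis), then antibody-sensitized sheep RBC (10^7/well) added for 30 min at 37 °C in Tris/casein buffer, pH 7.4. Stopped with EDTA; haemolysis read at 405 nm; IC50 by 4PL fit.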

[2] = Solubility test at 10 mg/mL (visual inspection and light scattering); type: physicochemical
[3] = test system: alternative complement pathway; test: Ex vivo alternative pathway complement activity (WIESLAB kit) after s.c. dosing in non-human primates; design: species or system Cynomolgus monkeys (Macaca fascicularis); settings: NHP, subcutaneous 1840 nmol/kg, FIG. 1a-f
Experimental: FIG. 1(a-f): Normalized “ex vivo” activity of the alternative complement pathway over time after administration of a test compound at time 0 to one or two non-human primates. Compounds were given subcutaneously at a dose of 1840 nmol/kg. Complement activity (alternative pathway) was measured using the Wieslab kit. Activity was normalized using the predose (0) sample (set to 100%) and the negative control included in the kit. Normalized activity or average normalized activity for both animals and standard deviation is shown.
Healthy male Cynomolgus monkeys (Macaca fascicularis) received single subcutaneous administrations of each test substance. Compounds were formulated in 20 mM phosphate adjusted with NaOH to pH 7.5 and mannitol for isotonicity and dosed at 1840 nmol/kg. Blood was collected from a femoral vein from each animal at the following times: Pre-dose, 1, 2, 4, 8, 24, 48, 72, 96 and 120 h (10 sampling times). Blood was collected into serum separation tubes and allowed to clot at room temperature. The tubes were centrifuged and resulting serum was aliquoted and snap-frozen over dry-ice and stored at nominally −80° C. until analysis. All NHP studies were performed in accordance with animal welfare laws and regulations, including approval of the study by a local ethical review process.
Serum isolated from non-human primates at specific time points after dosing were analyzed for alternative pathway complement activity using the Complement system Alternative Pathway WIESLAB® kit from Svar Life Science (previously Euro diagnostic AB, Sweden) following the manufacturer's protocol. Briefly, serum samples or controls were diluted in buffer and incubated in microtitre strips coated with specific activators of the alternative pathway. The wells were washed and formed C5b-9 was detected using included colorimetric reagents. Absorbance at 405 nm was measured. The percent activity of the alternative complement pathway was calculated for each animal and timepoint relative to the pre-dose activity (0 hours) of the individual animal with subtraction of the negative control. […]

[4] = molecular target: T1, Human C3 (Complement tech cat #A113c) (human, UniProt P01024 23-1663); test: cell-based or functional assay
[5] = molecular target: T1, Human C3 (Complement tech cat #A113c); test: cell-based or functional assay; remark: listed apart in the source

T1 sequence (P01024 23-1663 limits assumed): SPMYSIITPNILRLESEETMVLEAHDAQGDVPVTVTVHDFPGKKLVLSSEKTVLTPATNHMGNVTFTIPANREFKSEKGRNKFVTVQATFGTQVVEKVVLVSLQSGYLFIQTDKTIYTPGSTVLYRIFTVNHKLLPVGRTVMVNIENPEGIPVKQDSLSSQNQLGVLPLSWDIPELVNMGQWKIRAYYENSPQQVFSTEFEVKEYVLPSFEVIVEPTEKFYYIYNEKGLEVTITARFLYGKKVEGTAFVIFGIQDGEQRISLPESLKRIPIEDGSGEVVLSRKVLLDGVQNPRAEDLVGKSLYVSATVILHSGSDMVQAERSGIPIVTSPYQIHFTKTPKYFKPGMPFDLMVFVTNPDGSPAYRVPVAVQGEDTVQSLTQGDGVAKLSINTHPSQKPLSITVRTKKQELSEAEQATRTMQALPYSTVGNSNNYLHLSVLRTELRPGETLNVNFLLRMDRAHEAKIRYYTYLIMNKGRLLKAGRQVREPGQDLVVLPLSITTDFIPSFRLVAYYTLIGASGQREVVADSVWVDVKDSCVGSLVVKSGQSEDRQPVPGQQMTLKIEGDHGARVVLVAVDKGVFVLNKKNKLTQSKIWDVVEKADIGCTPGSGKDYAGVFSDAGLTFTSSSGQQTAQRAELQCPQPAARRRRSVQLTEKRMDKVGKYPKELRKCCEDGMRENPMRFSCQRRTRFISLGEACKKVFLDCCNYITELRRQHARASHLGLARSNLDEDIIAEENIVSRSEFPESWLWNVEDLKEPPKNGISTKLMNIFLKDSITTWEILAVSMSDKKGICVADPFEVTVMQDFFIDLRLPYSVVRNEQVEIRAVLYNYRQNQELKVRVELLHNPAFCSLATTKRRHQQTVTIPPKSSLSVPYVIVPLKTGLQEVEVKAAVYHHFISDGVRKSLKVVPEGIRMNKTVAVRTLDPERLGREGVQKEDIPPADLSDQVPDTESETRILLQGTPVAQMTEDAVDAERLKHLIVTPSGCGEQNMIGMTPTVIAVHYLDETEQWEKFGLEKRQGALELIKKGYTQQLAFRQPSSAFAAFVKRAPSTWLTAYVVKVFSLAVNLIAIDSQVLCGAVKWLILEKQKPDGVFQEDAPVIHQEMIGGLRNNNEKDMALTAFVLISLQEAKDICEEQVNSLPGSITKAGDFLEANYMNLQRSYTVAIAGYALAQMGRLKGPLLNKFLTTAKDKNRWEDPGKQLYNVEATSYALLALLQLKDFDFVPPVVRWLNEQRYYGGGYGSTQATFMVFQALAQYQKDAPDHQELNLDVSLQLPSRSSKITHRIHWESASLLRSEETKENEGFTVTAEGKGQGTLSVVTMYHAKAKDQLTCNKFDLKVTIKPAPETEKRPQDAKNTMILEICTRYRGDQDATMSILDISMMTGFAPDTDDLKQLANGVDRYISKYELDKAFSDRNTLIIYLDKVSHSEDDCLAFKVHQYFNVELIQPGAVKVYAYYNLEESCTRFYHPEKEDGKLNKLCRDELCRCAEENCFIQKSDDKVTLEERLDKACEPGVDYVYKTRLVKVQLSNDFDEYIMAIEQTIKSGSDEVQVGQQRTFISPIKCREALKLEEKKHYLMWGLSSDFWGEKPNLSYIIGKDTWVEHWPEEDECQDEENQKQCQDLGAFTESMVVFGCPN

Molecule	IC50 [1]	Solubility, Condition 1 ([2]; Acetate pH 4)	Solubility, Condition 2 ([2]; Acetate pH 5)	Solubility, Condition 3 ([2]; Phosphate pH 6)	Solubility, Condition 4 ([2]; Phosphate pH 7)	Solubility, Condition 5 ([2]; Phosphate pH 7.5)	duration of action (alternative pathway complement activity) [3]	CP hemolysis IC50 [4]	inhibition of hemolysis IC50 [5]
CC[C@H](C)[C@@H]1NC(=O)[C@@H](NC(=O)[C@H](Cc2ccccc2)NC(C)=O)CSSC[C@@H](C(=O)N[C@H](C(=O)NCC(=O)N[C@@H](C)C(=O)N[C@@H](CCC(=O)O)C(=O)N[C@@H](CO)C(N)=O)[C@@H](C)O)NC(=O)[C@H](CCCNC(=N)N)NC(=O)[C@H](Cc2c[nH]cn2)NC(=O)[C@H](CCC(=O)O)NC(=O)CNC(=O)[C@H](Cc2c[nH]c3ccccc23)NC(=O)[C@H](CC(=O)O)NC(=O)[C@H](CCC(N)=O)NC(=O)[C@H](Cc2cn(C)c3ccccc23)NC1=O [Compound 61] (Ac-FCI[Trp(1-Me)]QDWGEHRCTGAES-NH2; disulfide 2-12)	< 100 nM	− (“−” denotes lack of solubility at the given condition, as UV absorbance at 340 nm exceeds 0.1 AU and/or it is visibly turbid or contains particles)	− (“−” denotes lack of solubility at the given condition, as UV absorbance at 340 nm exceeds 0.1 AU and/or it is visibly turbid or contains particles)	+ (“+” denotes solubility at the given condition, as determined by UV absorbance being less than 0.1 AU at 340 nm and the sample being clear when manually inspected)	+ (“+” denotes solubility at the given condition, as determined by UV absorbance being less than 0.1 AU at 340 nm and the sample being clear when manually inspected)	+ (“+” denotes solubility at the given condition, as determined by UV absorbance being less than 0.1 AU at 340 nm and the sample being clear when manually inspected)	relatively short duration of action	–	–
Ac-ICIWQDWGAHRCT-NH2 (disulfide 2-12; SMILES CC[C@H](C)[C@H](NC(C)=O)C(=O)N[C@H]1CSSC[C@@H](C(=O)N[C@H](C(N)=O)[C@@H](C)O)NC(=O)[C@H](CCCNC(=N)N)NC(=O)[C@H](Cc2c[nH]cn2)NC(=O)[C@H](C)NC(=O)CNC(=O)[C@H](Cc2c[nH]c3ccccc23)NC(=O)[C@H](CC(=O)O)NC(=O)[C@H](CCC(N)=O)NC(=O)[C@H](Cc2c[nH]c3ccccc23)NC(=O)[C@H]([C@@H](C)CC)NC1=O) [Compound 1]	–	–	–	–	–	–	–	150 nM	< 250 nM
